The values that follow are results of earlier work, collected in patent US20230357095A1, “HYDROGEN NANOBUBBLES INFUSED WATER FOR […] IRRIGATION” (L'Air Liquide, Societe Anonyme pour l'Etude et …, priority 2020, published 2023).

Like-named read-outs stand apart in the source and are kept apart here.

The conditions of the series: P=1 bar.

As to `[HH]` [hydrogen], the “Saturation concentration of hydrogen in pure water” value (T=273.1 K) is 1.95 mg/L and the “Saturation concentration of hydrogen in pure water” value (T=298.1 K) was 1.60 mg/L.
